Assay results published in US8450357B2, “Compositions comprising an aryl pyrazole and/or a formamidine, methods and uses thereof” (Merial Limited, priority 2008, dated 2013).

Key:
[1] = system: ticks (Rhipicephalus sanguineus); experiment: Study A: tick efficacy of Compound 1 spot-on formulations in dogs; type: in vivo
Experimental: An initial clinical study was conducted to test the efficacy of Compound 1 (3-cyano-1-(2-chloro-6-fluoro-4-trifluoromethylphenyl)-4-dichlorofluoromethylsulfinyl-5-methyl-1H-pyrazole) against ticks and fleas in various test formulations. Five test groups and an untreated control were evaluated. Each test group included six dogs. Compound was dissolved in a solvent or a combination of two or more solvents at 10% w/w. Test articles were formulated as topical spot-on solutions containing compound 1, 10% w/v in a solvent or a combination of solvents as described above. Dogs were infested with approximately 50 ticks (Rhipicephalus sanguineus) on days −1, 7, 14, 21, 28, 35 and 42. Dogs were also infested with approximately 100 fleas (Ctenocephalides felis) on days −1, 8, 15, 22, 29, 36, and 43. Treatment was applied by parting the hair and applying the formulation directly onto the skin on one spot at the midline of the neck, between the base of the skull and the shoulder blades. The dose rate of each of the topical solutions was 0.1 ml/kg (10 mg/kg) body weight. The efficacy of compound 1 in various formulations is shown Table 2 below.
Negative values indicate % increase in tick counts relative to control.

[2] = system: fleas (Ctenocephalides felis); experiment: Study B: flea efficacy of Compound 1 spot-on formulations in dogs; type: in vivo
From the text: A separate clinical efficacy study in dogs was designed with an untreated control group and 5 test groups treated with compound 1. Each group had six dogs. Test articles were formulated as topical spot-on solutions containing compound 1, 10-20% w/v in a solvent or a combination of solvents as described above. Dogs were infested with approximately 50 ticks (Rhipicephalus sanguineus) on days −1, 7, 14, 21, 28, 35 and 42. Dogs were also infested with approximately 100 fleas (Ctenocephalides felis) on days −1, 8, 15, 22, 29, 36, and 43. Treatment was applied by parting the hair and applying the formulation directly onto the skin on one spot at the midline of the neck, between the base of the skull and the shoulder blades. […] […] It should be noted that Study A and Study B were conducted at different times and locations, and the results of each clinical study may differ from the other based on various environmental factors. Thus, the results of one clinical study should not be compared with those of another due to these factors.

Cc1c([S+]([O-])C(F)(Cl)Cl)c(C#N)nn1-c1c(F)cc(C(F)(F)F)cc1Cl (centres unmarked) [Compound 1, 3-cyano-1-(2-chloro-6-fluoro-4-trifluoromethylphenyl)-4-dichlorofluoromethylsulfinyl-5-methyl-1H-pyrazole]
% Efficacy against ticks ([1]; Day 1, Trt. Group 2: 10 mg/kg in Butyl acetate/octyl acetate): 48.6%
% Efficacy against ticks ([1]; Day 1, Trt. Group 3: 10 mg/kg in Diethylene glycol monoethyl ether (transcutol)/N-methyl-2-pyrrolidone): 59.0%
% Efficacy against ticks ([1]; Day 1, Trt. Group 4: 10 mg/kg in Dipropylene glycol monomethyl ether/butyl acetate): 71.5%
% Efficacy against ticks ([1]; Day 1, Trt. Group 5: 10 mg/kg in Diisopropyl adipate): 71.5%
% Efficacy against ticks ([1]; Day 1, Trt. Group 6: 10 mg/kg in Triacetin): 80.7%
% Efficacy against ticks ([1]; Day 2, Trt. Group 2: 10 mg/kg in Butyl acetate/octyl acetate): 67.6%
% Efficacy against ticks ([1]; Day 2, Trt. Group 3: 10 mg/kg in Diethylene glycol monoethyl ether (transcutol)/N-methyl-2-pyrrolidone): 60.8%
% Efficacy against ticks ([1]; Day 2, Trt. Group 4: 10 mg/kg in Dipropylene glycol monomethyl ether/butyl acetate): 72.0%
% Efficacy against ticks ([1]; Day 2, Trt. Group 5: 10 mg/kg in Diisopropyl adipate): 86.0%
% Efficacy against ticks ([1]; Day 2, Trt. Group 6: 10 mg/kg in Triacetin): 79.2%
% Efficacy against ticks ([1]; Day 9, Trt. Group 2: 10 mg/kg in Butyl acetate/octyl acetate): 88.1%
% Efficacy against ticks ([1]; Day 9, Trt. Group 3: 10 mg/kg in Diethylene glycol monoethyl ether (transcutol)/N-methyl-2-pyrrolidone): 78.1%
% Efficacy against ticks ([1]; Day 9, Trt. Group 4: 10 mg/kg in Dipropylene glycol monomethyl ether/butyl acetate): 71.2%
% Efficacy against ticks ([1]; Day 9, Trt. Group 5: 10 mg/kg in Diisopropyl adipate): 90.4%
% Efficacy against ticks ([1]; Day 9, Trt. Group 6: 10 mg/kg in Triacetin): 83.1%
% Efficacy against ticks ([1]; Day 16, Trt. Group 2: 10 mg/kg in Butyl acetate/octyl acetate): 88.7%
% Efficacy against ticks ([1]; Day 16, Trt. Group 3: 10 mg/kg in Diethylene glycol monoethyl ether (transcutol)/N-methyl-2-pyrrolidone): 81.4%
% Efficacy against ticks ([1]; Day 16, Trt. Group 4: 10 mg/kg in Dipropylene glycol monomethyl ether/butyl acetate): 90.5%
% Efficacy against ticks ([1]; Day 16, Trt. Group 5: 10 mg/kg in Diisopropyl adipate): 83.2%
% Efficacy against ticks ([1]; Day 16, Trt. Group 6: 10 mg/kg in Triacetin): 91.7%
% Efficacy against ticks ([1]; Day 23, Trt. Group 2: 10 mg/kg in Butyl acetate/octyl acetate): 41.1%
% Efficacy against ticks ([1]; Day 23, Trt. Group 3: 10 mg/kg in Diethylene glycol monoethyl ether (transcutol)/N-methyl-2-pyrrolidone): 52.2%
% Efficacy against ticks ([1]; Day 23, Trt. Group 4: 10 mg/kg in Dipropylene glycol monomethyl ether/butyl acetate): 38.4%
% Efficacy against ticks ([1]; Day 23, Trt. Group 5: 10 mg/kg in Diisopropyl adipate): 20.4%
% Efficacy against ticks ([1]; Day 23, Trt. Group 6: 10 mg/kg in Triacetin): 89.1%
% Efficacy against ticks ([1]; Day 30, Trt. Group 2: 10 mg/kg in Butyl acetate/octyl acetate): 64.0%
% Efficacy against ticks ([1]; Day 30, Trt. Group 3: 10 mg/kg in Diethylene glycol monoethyl ether (transcutol)/N-methyl-2-pyrrolidone): 45.9%
% Efficacy against ticks ([1]; Day 30, Trt. Group 4: 10 mg/kg in Dipropylene glycol monomethyl ether/butyl acetate): 71.7%
% Efficacy against ticks ([1]; Day 30, Trt. Group 5: 10 mg/kg in Diisopropyl adipate): 78.2%
% Efficacy against ticks ([1]; Day 30, Trt. Group 6: 10 mg/kg in Triacetin): 72.3%
% Efficacy against ticks ([1]; Day 44, Trt. Group 2: 10 mg/kg in Butyl acetate/octyl acetate): −8.6%
% Efficacy against ticks ([1]; Day 44, Trt. Group 3: 10 mg/kg in Diethylene glycol monoethyl ether (transcutol)/N-methyl-2-pyrrolidone): −10.8%
% Efficacy against ticks ([1]; Day 44, Trt. Group 4: 10 mg/kg in Dipropylene glycol monomethyl ether/butyl acetate): −29.9%
% Efficacy against ticks ([1]; Day 44, Trt. Group 5: 10 mg/kg in Diisopropyl adipate): 0.3%
% Efficacy against ticks ([1]; Day 44, Trt. Group 6: 10 mg/kg in Triacetin): 47.8%
% Efficacy against fleas ([2]; Day 2, Trt. Group 2: 0.1 ml/kg (10 mg/kg) in Triacetin): 100%
% Efficacy against fleas ([2]; Day 2, Trt. Group 3: 0.2 ml/kg (20 mg/kg) in Triacetin): 100%
% Efficacy against fleas ([2]; Day 2, Trt. Group 4: 10 mg/kg in Diisopropyl adipate): 100%
% Efficacy against fleas ([2]; Day 2, Trt. Group 5: 10 mg/kg in Diethylene glycol monoethyl ether (transcutol)): 100%
% Efficacy against fleas ([2]; Day 2, Trt. Group 6: 10 mg/kg in Triacetin/diisopropyl adipate): 100%
% Efficacy against fleas ([2]; Day 9, Trt. Group 2: 0.1 ml/kg (10 mg/kg) in Triacetin): 100%
% Efficacy against fleas ([2]; Day 9, Trt. Group 3: 0.2 ml/kg (20 mg/kg) in Triacetin): 100%
% Efficacy against fleas ([2]; Day 9, Trt. Group 4: 10 mg/kg in Diisopropyl adipate): 100%
% Efficacy against fleas ([2]; Day 9, Trt. Group 5: 10 mg/kg in Diethylene glycol monoethyl ether (transcutol)): 100%
% Efficacy against fleas ([2]; Day 9, Trt. Group 6: 10 mg/kg in Triacetin/diisopropyl adipate): 100%
% Efficacy against fleas ([2]; Day 16, Trt. Group 2: 0.1 ml/kg (10 mg/kg) in Triacetin): 100%
% Efficacy against fleas ([2]; Day 16, Trt. Group 3: 0.2 ml/kg (20 mg/kg) in Triacetin): 100%
% Efficacy against fleas ([2]; Day 16, Trt. Group 4: 10 mg/kg in Diisopropyl adipate): 100%
% Efficacy against fleas ([2]; Day 16, Trt. Group 5: 10 mg/kg in Diethylene glycol monoethyl ether (transcutol)): 100%
% Efficacy against fleas ([2]; Day 16, Trt. Group 6: 10 mg/kg in Triacetin/diisopropyl adipate): 100%
% Efficacy against fleas ([2]; Day 23, Trt. Group 2: 0.1 ml/kg (10 mg/kg) in Triacetin): 99.8%
% Efficacy against fleas ([2]; Day 23, Trt. Group 3: 0.2 ml/kg (20 mg/kg) in Triacetin): 99.8%
% Efficacy against fleas ([2]; Day 23, Trt. Group 4: 10 mg/kg in Diisopropyl adipate): 100%
% Efficacy against fleas ([2]; Day 23, Trt. Group 5: 10 mg/kg in Diethylene glycol monoethyl ether (transcutol)): 99.8%
% Efficacy against fleas ([2]; Day 23, Trt. Group 6: 10 mg/kg in Triacetin/diisopropyl adipate): 99.8%
% Efficacy against fleas ([2]; Day 30, Trt. Group 2: 0.1 ml/kg (10 mg/kg) in Triacetin): 99.7%
% Efficacy against fleas ([2]; Day 30, Trt. Group 3: 0.2 ml/kg (20 mg/kg) in Triacetin): 100%
% Efficacy against fleas ([2]; Day 30, Trt. Group 4: 10 mg/kg in Diisopropyl adipate): 100%
% Efficacy against fleas ([2]; Day 30, Trt. Group 5: 10 mg/kg in Diethylene glycol monoethyl ether (transcutol)): 100%
% Efficacy against fleas ([2]; Day 30, Trt. Group 6: 10 mg/kg in Triacetin/diisopropyl adipate): 100%
% Efficacy against fleas ([2]; Day 37, Trt. Group 2: 0.1 ml/kg (10 mg/kg) in Triacetin): 99.8%
% Efficacy against fleas ([2]; Day 37, Trt. Group 3: 0.2 ml/kg (20 mg/kg) in Triacetin): 100%
% Efficacy against fleas ([2]; Day 37, Trt. Group 4: 10 mg/kg in Diisopropyl adipate): 98.9%
% Efficacy against fleas ([2]; Day 37, Trt. Group 5: 10 mg/kg in Diethylene glycol monoethyl ether (transcutol)): 100%
% Efficacy against fleas ([2]; Day 37, Trt. Group 6: 10 mg/kg in Triacetin/diisopropyl adipate): 100%
% Efficacy against fleas ([2]; Day 44, Trt. Group 2: 0.1 ml/kg (10 mg/kg) in Triacetin): 100%
% Efficacy against fleas ([2]; Day 44, Trt. Group 3: 0.2 ml/kg (20 mg/kg) in Triacetin): 100%
% Efficacy against fleas ([2]; Day 44, Trt. Group 4: 10 mg/kg in Diisopropyl adipate): 99.6%
% Efficacy against fleas ([2]; Day 44, Trt. Group 5: 10 mg/kg in Diethylene glycol monoethyl ether (transcutol)): 100%
% Efficacy against fleas ([2]; Day 44, Trt. Group 6: 10 mg/kg in Triacetin/diisopropyl adipate): 100%
% Efficacy against fleas ([2]; Day 51, Trt. Group 2: 0.1 ml/kg (10 mg/kg) in Triacetin): 99.8%
% Efficacy against fleas ([2]; Day 51, Trt. Group 3: 0.2 ml/kg (20 mg/kg) in Triacetin): 99.7%
% Efficacy against fleas ([2]; Day 51, Trt. Group 4: 10 mg/kg in Diisopropyl adipate): 98.5%
% Efficacy against fleas ([2]; Day 51, Trt. Group 5: 10 mg/kg in Diethylene glycol monoethyl ether (transcutol)): 100%
% Efficacy against fleas ([2]; Day 51, Trt. Group 6: 10 mg/kg in Triacetin/diisopropyl adipate): 100%
% Efficacy against fleas ([2]; Day 58, Trt. Group 2: 0.1 ml/kg (10 mg/kg) in Triacetin): 99.6%
% Efficacy against fleas ([2]; Day 58, Trt. Group 3: 0.2 ml/kg (20 mg/kg) in Triacetin): 99.0%
% Efficacy against fleas ([2]; Day 58, Trt. Group 4: 10 mg/kg in Diisopropyl adipate): 96.7%
% Efficacy against fleas ([2]; Day 58, Trt. Group 5: 10 mg/kg in Diethylene glycol monoethyl ether (transcutol)): 100%
% Efficacy against fleas ([2]; Day 58, Trt. Group 6: 10 mg/kg in Triacetin/diisopropyl adipate): 98.8%
